Assay results as given in publication PMC8474115 (Journal of Medicinal Chemistry, 2021).
Structures can show the parent of a compound that is named as a salt. Where two headings read alike, the source gives them in different places.

What was measured:
[1] = target: T1, Serotonin 5-HT1A (Homo sapiens, UniProt P08908); experiment: Eurofins SafetyScreen panel; assay type: binding
T1 construct: Eurofins (contract assay)
T1 sequence (P08908 1-422): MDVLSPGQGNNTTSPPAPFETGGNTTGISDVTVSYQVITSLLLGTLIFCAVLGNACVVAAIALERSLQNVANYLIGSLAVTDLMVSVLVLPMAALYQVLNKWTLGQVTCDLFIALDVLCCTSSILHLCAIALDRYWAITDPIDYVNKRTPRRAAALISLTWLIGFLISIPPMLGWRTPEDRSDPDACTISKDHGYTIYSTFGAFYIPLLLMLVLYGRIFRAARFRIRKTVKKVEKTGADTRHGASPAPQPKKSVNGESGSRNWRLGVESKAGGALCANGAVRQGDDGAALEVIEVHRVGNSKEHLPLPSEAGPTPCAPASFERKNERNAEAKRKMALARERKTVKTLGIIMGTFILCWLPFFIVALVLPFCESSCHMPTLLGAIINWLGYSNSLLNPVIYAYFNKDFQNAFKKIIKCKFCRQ

[2] = target: T2, Progesterone PR-B (Homo sapiens, UniProt P06401); experiment: Eurofins SafetyScreen panel; assay type: binding
T2 construct: Eurofins (contract assay)

[3] = target: Ca Channel L-Type, Phenylalkylamine (Rattus norvegicus, UniProt P22002); experiment: Eurofins SafetyScreen panel; assay type: binding
[4] = target: T3, 5-HT2B receptors (Homo sapiens, UniProt P41595); experiment: Agonist effect at 5-HT2B receptors (HTRF, Eurofins); assay type: cell-based; details: 1 μM
T3 construct: Eurofins, France
Protocol: Experiment was performed in duplicate at Eurofins, France.

[5] = target: T4, Adrenergic β2 (Homo sapiens, UniProt P07550); experiment: Eurofins SafetyScreen panel; assay type: binding
T4 construct: Eurofins (contract screening, SafetyScreen panel) PP223

[6] = target: T5, Opiate σ1 (OP1, DOP) (Homo sapiens, UniProt P41143); experiment: Eurofins SafetyScreen panel; assay type: binding; details: read-out: %inh
T5 construct: Eurofins (contract assay)

[7] = target: T6, PPARγ (Homo sapiens, UniProt P37231); experiment: Eurofins SafetyScreen panel; assay type: binding
T6 construct: Eurofins (contract assay)

[8] = target: T7, Melanocortin MC1 (Homo sapiens, UniProt Q01726); experiment: Eurofins SafetyScreen panel; assay type: binding
T7 construct: purchased Eurofins (Panlabs) SafetyScreen87 Panel

[9] = target: T8, Vasopressin V1A (Homo sapiens, UniProt P37288); experiment: Eurofins SafetyScreen panel; assay type: binding
T8 construct: Eurofins (contract screening, SafetyScreen panel) PP223

[10] = target: T9, Adrenergic α2A (Homo sapiens, UniProt P08913); experiment: Eurofins SafetyScreen panel; assay type: binding
T9 construct: Eurofins (contract screening, SafetyScreen panel) PP223
T9 sequence (P08913 1-465): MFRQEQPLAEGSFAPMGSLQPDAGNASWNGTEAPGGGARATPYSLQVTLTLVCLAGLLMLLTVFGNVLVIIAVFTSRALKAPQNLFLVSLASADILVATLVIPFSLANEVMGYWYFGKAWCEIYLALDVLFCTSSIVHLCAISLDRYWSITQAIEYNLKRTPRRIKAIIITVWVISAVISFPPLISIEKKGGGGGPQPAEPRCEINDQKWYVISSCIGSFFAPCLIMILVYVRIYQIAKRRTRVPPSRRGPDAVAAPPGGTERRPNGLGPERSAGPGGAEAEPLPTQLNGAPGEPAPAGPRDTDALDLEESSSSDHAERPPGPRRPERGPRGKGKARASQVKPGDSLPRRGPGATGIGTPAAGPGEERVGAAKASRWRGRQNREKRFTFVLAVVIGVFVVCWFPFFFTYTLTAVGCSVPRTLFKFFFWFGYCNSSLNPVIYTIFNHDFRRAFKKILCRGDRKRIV

[11] = target: T10, Protein Tyr Kinase, LCK (Homo sapiens, UniProt P06239); experiment: Eurofins SafetyScreen panel; assay type: biochemical
T10 construct: Eurofins (contract screening, SafetyScreen panel) PP223

[12] = target: T11, Sigma σ1 (Homo sapiens, UniProt Q99720); experiment: Eurofins SafetyScreen panel; assay type: binding
T11 construct: Eurofins (contract assay) 278110

[13] = target: T12, MAO-B (Homo sapiens, UniProt P27338); experiment: Eurofins SafetyScreen panel; assay type: biochemical
T12 construct: Eurofins

[14] = target: hD2L (Homo sapiens, UniProt P14416); details: D2R
Protocol: For membrane preparation, cells after reaching 90% confluence, were washed with phosphate-buffered saline (PBS), and pelleted by centrifugation (200 × g) in PBS containing 0.1 mM EDTA and 1 mM dithiothreitol.
The total reaction volume was 200 μL. The incubation process was terminated by filtration through UniFilter-96 (PerkinElmer) plates with the FilterMate Universal Harvester (PerkinElmer, #C961962), and radioactivity retained on the filters was quantified on a MicroBeta counter for radiometric detection (PerkinElmer). […] To evaluate the level of nonspecific signal 10 μM of 5-HT for 5-HT1AR and 5-HT7R, 20 μM of mianserin for 5-HT2AR, 10 μM of methiothepine for 5-HT6R and 10 μM of haloperidol for D2LR were used. […] The acquired results were presented as the mean of at least two independent experiments.

[15] = target: T13, Muscarinic M3 (Homo sapiens, UniProt P20309); experiment: Eurofins SafetyScreen panel; assay type: binding
T13 construct: Eurofins (contract screening, SafetyScreen panel) PP223

[16] = target: T14, Norepinephrine Transporter (NET) (Homo sapiens, UniProt P23975); experiment: Eurofins SafetyScreen panel; assay type: binding
T14 construct: Eurofins (contract screening, SafetyScreen panel) PP223

[17] = target: T15, Melanocortin MC4 (Homo sapiens, UniProt P32245); experiment: Eurofins SafetyScreen panel; assay type: binding
T15 construct: purchased Eurofins (Panlabs) SafetyScreen87 Panel

[18] = target: T16, Adrenergic α1D (Homo sapiens, UniProt P25100); experiment: Eurofins SafetyScreen panel; assay type: binding
T16 construct: Eurofins (contract screening, SafetyScreen panel) PP223

[19] = target: Ca Channel L-Type, Dihydropyridine (Rattus norvegicus, UniProt P22002); experiment: Eurofins SafetyScreen panel; assay type: binding
[20] = target: T17, GABAB1A (Homo sapiens, UniProt Q9UBS5); experiment: Eurofins SafetyScreen panel; assay type: binding
T17 construct: purchased Eurofins (Panlabs) SafetyScreen87 Panel

[21] = read-out: %inh, 10 μM, additional batch

T11 sequence (Q99720 whole entry): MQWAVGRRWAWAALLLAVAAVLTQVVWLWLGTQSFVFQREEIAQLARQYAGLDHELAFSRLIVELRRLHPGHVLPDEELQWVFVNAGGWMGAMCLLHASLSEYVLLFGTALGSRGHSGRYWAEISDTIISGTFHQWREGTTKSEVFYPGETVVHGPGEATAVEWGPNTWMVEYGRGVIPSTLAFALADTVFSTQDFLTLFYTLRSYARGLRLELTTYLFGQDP
T14 sequence (P23975 whole entry): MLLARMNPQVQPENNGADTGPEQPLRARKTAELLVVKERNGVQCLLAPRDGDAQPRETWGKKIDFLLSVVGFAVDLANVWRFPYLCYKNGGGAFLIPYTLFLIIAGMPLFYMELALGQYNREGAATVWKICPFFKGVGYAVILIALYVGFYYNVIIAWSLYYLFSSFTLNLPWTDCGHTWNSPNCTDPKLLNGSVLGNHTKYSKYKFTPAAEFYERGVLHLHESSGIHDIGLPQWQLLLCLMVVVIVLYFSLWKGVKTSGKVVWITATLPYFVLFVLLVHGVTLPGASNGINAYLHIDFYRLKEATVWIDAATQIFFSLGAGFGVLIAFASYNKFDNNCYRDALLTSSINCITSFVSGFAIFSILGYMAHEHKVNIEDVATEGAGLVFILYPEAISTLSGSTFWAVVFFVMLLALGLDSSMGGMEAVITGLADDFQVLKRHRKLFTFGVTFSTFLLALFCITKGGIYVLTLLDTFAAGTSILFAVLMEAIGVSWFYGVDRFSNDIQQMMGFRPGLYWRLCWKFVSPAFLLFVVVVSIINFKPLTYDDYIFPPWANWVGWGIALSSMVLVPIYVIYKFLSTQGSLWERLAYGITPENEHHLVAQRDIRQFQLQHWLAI
Ca Channel L-Type, Dihydropyridine, sequence (P22002 whole entry): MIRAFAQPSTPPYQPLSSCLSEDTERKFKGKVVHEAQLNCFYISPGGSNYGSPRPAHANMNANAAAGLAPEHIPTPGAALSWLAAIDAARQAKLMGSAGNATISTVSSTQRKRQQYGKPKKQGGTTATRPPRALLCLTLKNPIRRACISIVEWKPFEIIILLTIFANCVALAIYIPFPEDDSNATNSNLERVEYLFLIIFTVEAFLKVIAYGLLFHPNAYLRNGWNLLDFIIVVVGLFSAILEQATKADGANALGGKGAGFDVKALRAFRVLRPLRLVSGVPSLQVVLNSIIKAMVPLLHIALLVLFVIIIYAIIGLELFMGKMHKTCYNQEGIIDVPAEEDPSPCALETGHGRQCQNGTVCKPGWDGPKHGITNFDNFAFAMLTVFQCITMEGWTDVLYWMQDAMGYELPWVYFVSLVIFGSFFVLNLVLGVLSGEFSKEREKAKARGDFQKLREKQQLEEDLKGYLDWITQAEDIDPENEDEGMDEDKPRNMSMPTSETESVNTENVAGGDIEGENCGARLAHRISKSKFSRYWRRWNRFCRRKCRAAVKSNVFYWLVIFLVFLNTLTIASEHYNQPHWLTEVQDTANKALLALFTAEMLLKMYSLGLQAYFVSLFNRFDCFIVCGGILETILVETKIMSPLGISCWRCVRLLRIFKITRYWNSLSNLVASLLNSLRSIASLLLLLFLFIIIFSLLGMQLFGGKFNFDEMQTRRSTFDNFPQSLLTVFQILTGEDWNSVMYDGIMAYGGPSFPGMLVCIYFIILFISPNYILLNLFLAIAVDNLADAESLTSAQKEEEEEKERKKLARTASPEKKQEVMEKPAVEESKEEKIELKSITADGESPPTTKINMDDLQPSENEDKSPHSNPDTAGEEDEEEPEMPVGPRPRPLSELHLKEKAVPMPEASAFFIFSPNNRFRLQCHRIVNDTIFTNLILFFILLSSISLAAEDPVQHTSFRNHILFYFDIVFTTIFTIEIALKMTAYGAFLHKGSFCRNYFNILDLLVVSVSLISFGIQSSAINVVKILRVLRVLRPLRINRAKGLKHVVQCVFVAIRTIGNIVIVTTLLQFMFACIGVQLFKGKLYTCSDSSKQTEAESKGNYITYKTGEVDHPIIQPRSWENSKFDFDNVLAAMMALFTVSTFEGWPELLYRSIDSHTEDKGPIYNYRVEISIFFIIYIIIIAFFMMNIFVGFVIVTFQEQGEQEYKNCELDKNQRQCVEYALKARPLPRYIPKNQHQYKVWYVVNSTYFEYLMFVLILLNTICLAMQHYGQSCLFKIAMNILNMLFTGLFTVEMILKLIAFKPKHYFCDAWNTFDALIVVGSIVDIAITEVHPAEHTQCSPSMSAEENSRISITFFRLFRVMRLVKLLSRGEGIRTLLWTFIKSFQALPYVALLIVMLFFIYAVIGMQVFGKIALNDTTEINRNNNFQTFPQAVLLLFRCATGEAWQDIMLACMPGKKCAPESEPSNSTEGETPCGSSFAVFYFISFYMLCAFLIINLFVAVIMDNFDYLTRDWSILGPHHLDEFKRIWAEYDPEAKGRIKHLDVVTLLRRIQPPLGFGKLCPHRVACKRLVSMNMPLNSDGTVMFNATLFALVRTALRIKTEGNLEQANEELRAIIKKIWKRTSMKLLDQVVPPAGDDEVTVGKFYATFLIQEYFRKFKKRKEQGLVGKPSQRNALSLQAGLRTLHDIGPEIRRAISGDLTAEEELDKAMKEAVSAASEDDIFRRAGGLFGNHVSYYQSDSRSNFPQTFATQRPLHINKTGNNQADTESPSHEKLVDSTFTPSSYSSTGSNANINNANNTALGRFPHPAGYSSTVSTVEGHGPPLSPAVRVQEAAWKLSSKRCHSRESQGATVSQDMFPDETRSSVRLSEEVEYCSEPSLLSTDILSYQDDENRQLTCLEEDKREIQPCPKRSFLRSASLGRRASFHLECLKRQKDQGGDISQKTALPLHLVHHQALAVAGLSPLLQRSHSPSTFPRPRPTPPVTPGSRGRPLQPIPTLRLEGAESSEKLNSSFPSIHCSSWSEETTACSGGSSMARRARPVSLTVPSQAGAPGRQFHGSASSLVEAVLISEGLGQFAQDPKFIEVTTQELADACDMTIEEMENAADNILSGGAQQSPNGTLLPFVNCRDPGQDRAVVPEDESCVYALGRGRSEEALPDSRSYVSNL
Ca Channel L-Type, Phenylalkylamine, sequence (P22002 whole entry): as above
T4 sequence (P07550 whole entry): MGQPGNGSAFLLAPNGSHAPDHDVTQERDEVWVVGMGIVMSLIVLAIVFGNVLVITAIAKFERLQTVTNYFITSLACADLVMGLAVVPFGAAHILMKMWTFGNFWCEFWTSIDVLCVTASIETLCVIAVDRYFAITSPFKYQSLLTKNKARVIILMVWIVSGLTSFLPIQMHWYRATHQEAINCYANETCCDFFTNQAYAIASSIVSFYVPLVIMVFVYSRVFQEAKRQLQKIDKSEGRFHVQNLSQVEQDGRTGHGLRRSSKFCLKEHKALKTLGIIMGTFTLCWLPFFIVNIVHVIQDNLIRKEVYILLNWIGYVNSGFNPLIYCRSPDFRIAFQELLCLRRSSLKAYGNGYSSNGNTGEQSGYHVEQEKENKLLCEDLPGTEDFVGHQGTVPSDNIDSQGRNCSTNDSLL
hD2L, sequence (P14416 whole entry): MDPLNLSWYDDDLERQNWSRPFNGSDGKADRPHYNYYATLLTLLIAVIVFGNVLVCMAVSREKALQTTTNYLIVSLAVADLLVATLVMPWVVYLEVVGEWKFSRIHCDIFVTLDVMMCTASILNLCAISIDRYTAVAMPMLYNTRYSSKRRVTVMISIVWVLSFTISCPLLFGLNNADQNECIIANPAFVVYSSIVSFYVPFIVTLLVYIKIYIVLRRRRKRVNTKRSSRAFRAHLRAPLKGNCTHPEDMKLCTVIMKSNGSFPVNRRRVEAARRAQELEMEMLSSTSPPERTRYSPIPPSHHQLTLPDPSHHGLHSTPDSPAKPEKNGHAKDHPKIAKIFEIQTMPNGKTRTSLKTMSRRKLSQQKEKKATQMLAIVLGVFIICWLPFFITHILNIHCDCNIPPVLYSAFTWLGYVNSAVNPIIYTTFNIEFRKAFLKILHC
T5 sequence (P41143 whole entry): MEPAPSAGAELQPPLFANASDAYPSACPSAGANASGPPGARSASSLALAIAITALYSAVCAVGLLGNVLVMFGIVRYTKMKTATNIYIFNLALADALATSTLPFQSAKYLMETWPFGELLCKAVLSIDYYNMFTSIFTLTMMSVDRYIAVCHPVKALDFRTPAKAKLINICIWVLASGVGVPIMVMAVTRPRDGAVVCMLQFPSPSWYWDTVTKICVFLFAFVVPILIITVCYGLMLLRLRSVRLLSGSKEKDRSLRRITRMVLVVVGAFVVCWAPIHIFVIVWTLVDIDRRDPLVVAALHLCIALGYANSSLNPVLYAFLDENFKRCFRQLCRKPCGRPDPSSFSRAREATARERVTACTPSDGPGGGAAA
T12 sequence (P27338 whole entry): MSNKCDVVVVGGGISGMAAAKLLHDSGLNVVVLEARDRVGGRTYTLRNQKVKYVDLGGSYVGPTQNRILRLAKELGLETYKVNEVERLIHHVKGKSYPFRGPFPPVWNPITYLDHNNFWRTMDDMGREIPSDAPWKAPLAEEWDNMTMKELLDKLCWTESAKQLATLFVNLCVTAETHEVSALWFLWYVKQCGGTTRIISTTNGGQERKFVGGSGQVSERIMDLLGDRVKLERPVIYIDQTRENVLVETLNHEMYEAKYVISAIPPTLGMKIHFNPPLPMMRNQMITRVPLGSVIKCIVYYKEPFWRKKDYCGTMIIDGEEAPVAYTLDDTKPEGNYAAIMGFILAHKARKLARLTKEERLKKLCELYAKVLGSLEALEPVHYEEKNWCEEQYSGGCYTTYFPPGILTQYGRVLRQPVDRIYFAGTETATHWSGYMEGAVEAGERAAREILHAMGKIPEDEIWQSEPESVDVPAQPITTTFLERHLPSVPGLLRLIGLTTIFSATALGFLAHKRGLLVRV

## O=S(=O)(c1cccc(F)c1)n1ccc2c(N3CCNCC3)nc3ccccc3c21 [FPPQ, 1-[(3-Fluorophenyl)sulfonyl]-4-(piperazin-1-yl)-1H-pyrrolo[3,2-c]quinoline dihydrochloride]
[1]
  IC50: 860 nM
  Ki: 490 nM
[1]; read-out: %inh, 10 nM
  inhibition at 0.01 µM: -2%
[1]; read-out: %inh, 0.1 μM
  inhibition at 0.1 µM: 16%
[1]; read-out: %inh, 1 μM
  inhibition at 1 µM: 53%
[1]; read-out: %inh, 10 μM
  inhibition at 10 µM: 87%
[1]; [21]
  inhibition at 10 µM: 91%
[2]
  inhibition at 10 µM: 21%
[3]; 10 nM
  inhibition at 0.01 µM: -2%
[3]; 0.1 μM
  inhibition at 0.1 µM: 9%
[3]; 1 μM
  inhibition at 1 µM: 48%
[3]
  inhibition at 10 µM: 78%
[3]; additional batch
  inhibition at 10 µM: 85%
[4]
  agonistic effect at 5-HT2BR: 3.6 % inhibition
[5]
  IC50: 120 nM
  Ki: 85 nM
  inhibition at 10 µM: 103%
[5]; 10 nM
  inhibition at 0.01 µM: 9%
[5]; 0.1 μM
  inhibition at 0.1 µM: 43%
[5]; 1 μM
  inhibition at 1 µM: 93%
[5]; additional batch
  inhibition at 10 µM: 99%
[6]
  inhibition at 10 µM: 7%
[7]
  inhibition at 10 µM: 28%
[8]
  inhibition at 10 µM: 10%
[9]
  inhibition at 10 µM: -18%
[10]
  IC50: 220 nM
  Ki: 110 nM
[10]; read-out: %inh, 10 nM
  inhibition at 0.01 µM: 5%
[10]; read-out: %inh, 0.1 μM
  inhibition at 0.1 µM: 32%
[10]; read-out: %inh, 1 μM
  inhibition at 1 µM: 80%
[10]; read-out: %inh, 10 μM
  inhibition at 10 µM: 97%
[10]; [21]
  inhibition at 10 µM: 98%
[11]
  inhibition at 10 µM: 6%
[12]
  IC50: 8330 nM
  Ki: 3500 nM
[12]; read-out: %inh
  inhibition at 0.1 µM: 7%
  inhibition at 1 µM: 18%
  inhibition at 10 µM: 51%
  inhibition at 100 µM: 89%
[13]
  inhibition at 10 µM: 21%
[14]
  Ki: 4390 nM
[15]
  inhibition at 10 µM: 43%
[16]
  IC50: 1250 nM
  Ki: 1240 nM
[16]; read-out: %inh, 10 nM
  inhibition at 0.01 µM: 1%
[16]; read-out: %inh, 0.1 μM
  inhibition at 0.1 µM: 8%
[16]; read-out: %inh, 1 μM
  inhibition at 1 µM: 42%
[16]; read-out: %inh, 10 μM
  inhibition at 10 µM: 94%
[16]; [21]
  inhibition at 10 µM: 96%
[17]
  inhibition at 10 µM: 27%
[18]
  inhibition at 10 µM: 24%
[19]; 10 nM
  inhibition at 0.01 µM: -4%
[19]; 0.1 μM
  inhibition at 0.1 µM: 3%
[19]; 1 μM
  inhibition at 1 µM: 60%
[19]
  inhibition at 10 µM: 89%
[19]; additional batch
  inhibition at 10 µM: 78%
[20]
  inhibition at 10 µM: 13%
